Test results from patent US20240181125A1, “COMPOSITIONS AND METHODS FOR SCARLESS WOUND HEALING IN DIABETES” (Washington University, priority 2022, published 2024).
Bridge positions count the residues as written; N and C are the ends. Peptide text beside a SMILES is read from it. * marks the point of attachment. FITC = O=C1OC2(c3ccc(O)cc3Oc3cc(O)ccc32)c2ccc(NC(=S)*)cc21

What was measured:
[1] = tested on: HaCaTs; experiment: 2D scratch migration assay, HaCaT; type: cell-based, human; conditions: high glucose and TGFβ1, 48 hours
Experimental: HDFs, HaCaTs, and HAECs were cultured in 6-well plates using serum-free high glucose (4.5 g/L) basal medium with 1% P/S. After the cells reached confluency, a 200-μL pipet tip was used to scrape the cell monolayer. Then 3 mL of medium containing TGFβ1 (10 ng/ml) or TGFβ1 (10 ng/ml)/PTβR2I (10 μg/mL) was added to the wells. The cells were imaged at predetermined time points using a bright-field microscope. The distances between the scratch walls were measured using ImageJ to calculate the migration ratio

[2] = tested on: HDFs; experiment: Cell proliferation (dsDNA) under high glucose and TGFβ1, HDF; type: cell-based, human; conditions: high glucose, TGFβ1 10 ng/ml, PTβR2I 10 μg/mL; p<0.001
Experimental: HDFs, HaCaTs, and HAECs were seeded in 96-well plates at respective densities of 1.5×10^4 cells/mL, 2×10^4 cells/mL, and 2×10^4 cells/mL. High glucose (4.5 g/L) basal medium with 1% P/S was used for the culture. After 24 hours, TGFβ1 (10 ng/ml) or TGFβ1 (10 ng/ml)/PTβR2I (10 μg/mL) was added to the medium. The culture continued for three days. The medium was then replaced by papain solution and incubated at 60° C. for 24 hours. The dsDNA content was tested using a Quant-iT™ PicoGreen dsDNA Assay Kit (Invitrogen).

CC(C)C[C@@H]1NC(=O)CNC(=O)[C@@H](NC(=O)[C@@H](N)CCC(=O)O)CSSC[C@@H](C(=O)N[C@@H](CCCCNC(=S)Nc2ccc3c(c2)C(=O)OC32c3ccc(O)cc3Oc3cc(O)ccc32)C(=O)O)NC(=O)[C@H](CC(C)C)NC(=O)[C@H](CCCNC(=N)N)NC(=O)[C@H](Cc2c[nH]c3ccccc23)NC(=O)[C@H](C(C)C)NC(=O)[C@H](CCCNC(=N)N)NC(=O)[C@H](CC(=O)O)NC(=O)[C@@H]2CCCN2C(=O)[C@H](CCCNC(=N)N)NC(=O)CNC(=O)[C@H](C(C)C)NC(=O)[C@@H]2CCCN2C(=O)[C@H](CC(C)C)NC1=O [PTβR2I, ECGLLPVGRPDRVWRLCK-FITC] (H-ECGLLPVGRPDRVWRLCK(FITC)-OH; disulfide 2-17; N-terminus and C-terminus assumed)
migration [1]: significantly higher number of cells had migrated
proliferation (dsDNA, day 3) [2]: Significantly improved proliferation
